Five compounds from patent US11414663B2, “Micro-RNA profiling, compositions, and methods of treating diseases” (GOWEY RESEARCH GROUP, PLLC, priority 2010, dated 2022) can be followed below.

In the assay the test system is miRNA. The assay is described as follows: Pre and post microRNA profiles of patients after spine injections of rate limiters. It counts as in vivo, human. Particulars: for Impact on genome using spine injections: spine injections in patients, pre vs post miRNA profiles.

Structures are written as SMILES.

Turning to `N[C@@H](CS)C(=O)O` [Cysteine], the “Impact on genome using spine injections” value is on record as “Increases ail miRNA”. Still for that read-out and setting: the value for `N[C@@H](CCC(=O)N[C@@H](CS)C(=O)NCC(=O)O)C(=O)O` [Glutathione] was “Decrease all miRNA”; that for `[Mg+2]` [Magnesium] was “Increases all miRNA”. Turning to `[Se]` [Selenium], the “Impact on genome using spine injections” value is “Increases ail miRNA”. As to `[Zn]` [Zinc], the “Impact on genome using spine injections” value was “Decrease all miRNA except miR-486”. Under “spine injections, all other miRNA levels lowered”, the “miR-486 level, pre-treatment vs post-treatment profile” value is “miR-486 had increased”.
